# Patent EP3478687B1 (Daewoong Pharmaceutical Co., Ltd., priority 2016, dated 2018)
# pIC50: −log10 of the molar value.
# Key:
# [1] = target: T1, Recombinant purified human JAK3 (Homo sapiens, UniProt P52333); test: JAK3 kinase inhibitory activity, ADP-Glo kinase assay (Promega V9441); assay type: biochemical; details: ATP 5 uM, 4 ng JAK3 per reaction, 1 hour 30 °C, chemiluminescence
# T1 construct: purchased Promega V9441
# T1 sequence (P52333 1-1124): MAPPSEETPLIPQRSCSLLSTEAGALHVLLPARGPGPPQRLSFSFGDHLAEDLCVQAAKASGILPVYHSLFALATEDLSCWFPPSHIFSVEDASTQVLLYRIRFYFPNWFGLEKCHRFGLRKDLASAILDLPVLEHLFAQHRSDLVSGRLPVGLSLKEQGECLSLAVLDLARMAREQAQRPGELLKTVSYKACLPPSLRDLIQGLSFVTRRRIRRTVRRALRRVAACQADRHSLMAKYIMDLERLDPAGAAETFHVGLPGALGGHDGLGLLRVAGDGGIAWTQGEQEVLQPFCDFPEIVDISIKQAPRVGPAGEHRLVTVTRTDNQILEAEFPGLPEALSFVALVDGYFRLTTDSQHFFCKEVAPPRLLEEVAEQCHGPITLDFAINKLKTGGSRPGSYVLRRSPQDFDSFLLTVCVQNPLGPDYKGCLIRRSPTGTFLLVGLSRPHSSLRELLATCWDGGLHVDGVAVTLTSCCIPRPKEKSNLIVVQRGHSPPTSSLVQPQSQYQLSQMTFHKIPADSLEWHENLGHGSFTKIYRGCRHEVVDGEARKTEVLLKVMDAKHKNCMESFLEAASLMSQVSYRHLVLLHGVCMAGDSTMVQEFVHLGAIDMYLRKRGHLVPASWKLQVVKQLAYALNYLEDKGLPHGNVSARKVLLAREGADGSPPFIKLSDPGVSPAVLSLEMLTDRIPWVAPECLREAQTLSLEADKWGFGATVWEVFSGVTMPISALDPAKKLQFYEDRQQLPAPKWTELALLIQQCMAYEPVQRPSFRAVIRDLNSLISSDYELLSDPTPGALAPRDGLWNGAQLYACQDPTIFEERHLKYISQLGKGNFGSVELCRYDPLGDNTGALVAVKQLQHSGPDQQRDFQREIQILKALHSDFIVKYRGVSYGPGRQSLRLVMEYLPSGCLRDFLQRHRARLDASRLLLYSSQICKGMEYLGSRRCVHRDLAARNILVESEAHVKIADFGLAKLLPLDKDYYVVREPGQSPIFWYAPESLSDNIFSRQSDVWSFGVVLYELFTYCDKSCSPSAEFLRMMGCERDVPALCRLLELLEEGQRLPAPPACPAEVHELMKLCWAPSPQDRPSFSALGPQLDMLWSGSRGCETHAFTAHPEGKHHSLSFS
# Summary of the method: (§1)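 IC50 values come from ADP-Glo luminescence after 1 h kinase reactions at 30 °C in 1% DMSO on 0.2 µg/µL Poly(Glu4,Tyr1) substrate. ATP was 10 µM for BTK (8 ng, buffer containing MnCl2) and 5 µM for JAK3 (4 ng), in Tris-Cl pH 7.5/MgCl2/BSA/DTT.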
# [2] = target: T2, Recombinant purified human BTK (Homo sapiens, UniProt Q06187); test: BTK kinase inhibitory activity, ADP-Glo kinase assay (Promega V9071); assay type: biochemical; details: ATP 10 uM, 8 ng BTK per reaction, 1 hour 30 °C, chemiluminescence
# T2 construct: purchased Promega V9071
# T2 sequence (Q06187 whole entry): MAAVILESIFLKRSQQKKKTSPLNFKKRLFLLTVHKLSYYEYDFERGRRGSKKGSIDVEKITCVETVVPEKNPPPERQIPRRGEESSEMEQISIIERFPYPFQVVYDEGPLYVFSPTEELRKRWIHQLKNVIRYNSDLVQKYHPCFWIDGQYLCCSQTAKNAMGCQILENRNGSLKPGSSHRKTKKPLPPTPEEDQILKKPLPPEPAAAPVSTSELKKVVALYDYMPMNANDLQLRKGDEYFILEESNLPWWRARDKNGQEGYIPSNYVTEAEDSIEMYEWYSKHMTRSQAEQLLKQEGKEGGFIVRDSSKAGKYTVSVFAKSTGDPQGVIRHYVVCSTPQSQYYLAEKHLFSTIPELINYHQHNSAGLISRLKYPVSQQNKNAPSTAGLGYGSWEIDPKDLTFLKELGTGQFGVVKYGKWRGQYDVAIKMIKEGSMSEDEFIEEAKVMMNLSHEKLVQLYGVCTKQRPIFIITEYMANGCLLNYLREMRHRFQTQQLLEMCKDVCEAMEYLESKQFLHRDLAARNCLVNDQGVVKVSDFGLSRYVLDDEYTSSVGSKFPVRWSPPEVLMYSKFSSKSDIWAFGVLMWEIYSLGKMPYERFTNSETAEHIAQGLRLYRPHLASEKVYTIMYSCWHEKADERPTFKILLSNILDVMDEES
# Summary of the method: as §1
Structure (SMILES),pIC50 [1],pIC50 [2]
C=CC(=O)N1CCC[C@@H](Oc2nc(Nc3cnn(C4CC4)c3)nc3[nH]nc(Cl)c23)C1 [Example 153],8.80,8.66
"N#C/C(=C\C1CC1)C(=O)N1CCC[C@@H](Oc2nc(Nc3cnn(C4CC4)c3)nc3[nH]nc(Cl)c23)C1 [Example 154, (R,E)-2-(3-((3-chloro-6-((1-cyclopropyl-1H-pyrazol-4-yl)amino)-1H-pyrazolo[3,4-d]pyrimidin-4-yl)oxy)piperidine-1-carbonyl)-3-cyclopropylacrylonitrile]",7.27,8.60
"CCn1cc(Nc2nc(O[C@@H]3CCCN(C(=O)/C(C#N)=C/C4CC4)C3)c3c(Cl)n[nH]c3n2)cn1 [Example 155, (R,E)-2-(3-((3-chloro-6-((1-ethyl-1H-pyrazol-4-yl)amino)-1H-pyrazolo[3,4-d]pyrimidin-4-yl)oxy)piperidine-1-carbonyl)-3-cyclopropylacrylonitrile]",7.27,8.66
"CCn1cc(Nc2nc(O[C@@H]3CCCN(C(=O)/C(C#N)=C/C(C)C)C3)c3c(C#N)c[nH]c3n2)cn1 [Example 156, (R,E)-4-((1-(2-cyano-4-methylpent-2-enoyl)piperidin-3-yl)oxy)-2-((1-ethyl-1H-pyrazol-4-yl)amino)-7H-pyrrolo[2,3-d]pyrimidine-5-carbonitrile]",9.30,8.96
"CCn1cc(Nc2nc(O[C@@H]3CCCN(C(=O)/C(C#N)=C/C4CC4)C3)c3c(C#N)c[nH]c3n2)cn1 [Example 157, (R,E)-4-((1-(2-cyano-3-cyclopropylacryloyl)piperidin-3-yl)oxy)-2-((1-ethyl-1H-pyrazol-4-yl)amino)-7H-pyrrolo[2,3-d]pyrimidine-5-carbonitrile]",9.22,8.85
"CC(C)/C=C(\C#N)C(=O)N1CCC[C@@H](Oc2nc(Nc3cnn(C4CC4)c3)nc3[nH]nc(Cl)c23)C1 [Example 158, (R,E)-2-(3-((3-chloro-6-((1-cyclopropyl-1H-pyrazol-4-yl)amino)-1H-pyrazolo[3,4-d]pyrimidin-4-yl)oxy)piperidine-1-carbonyl)-4-methylpent-2-enenitrile]",8.54,8.92
C=CC(=O)N1CC[C@@H](C)[C@@H](N(C)c2nc(Nc3cnn(CC)c3)nc3[nH]nc(Cl)c23)C1 [Example 159],7.57,8.35
"CCn1cc(Nc2nc(N[C@H]3CN(C(=O)/C(C#N)=C/C(C)C)CC[C@H]3F)c3c(Cl)n[nH]c3n2)cn1 [Example 160, (E)-2-((3S,4R)-3-((3-chloro-6-((1-ethyl-1H-pyrazol-4-yl)amino)-1H-pyrazolo[3,4-d]pyrimidin-4-yl)amino)-4-fluoropiperidine-1-carbonyl)-4-methylpent-2-enenitrile]",8.82,8.47
"CCn1cc(Nc2nc(N[C@H]3CN(C(=O)/C(C#N)=C/C4CC4)CC[C@H]3F)c3c(Cl)n[nH]c3n2)cn1 [Example 161, (E)-2-((3S,4R)-3-((3-chloro-6-((1-ethyl-1H-pyrazol-4-yl)amino)-1H-pyrazolo[3,4-d]pyrimidin-4-yl)amino)-4-fluoropiperidine-1-carbonyl)-3-cyclopropylacrylonitrile]",8.30,8.89
"CC(C)/C=C(\C#N)C(=O)N1CCC[C@@H](Nc2nc(Nc3cnn(C4CC4)c3)nc3[nH]nc(Cl)c23)C1 [Example 162, (R,E)-2-(3-((3-chloro-6-((1-cyclopropyl-1H-pyrazol-4-yl)amino)-1H-pyrazolo[3,4-d]pyrimidin-4-yl)amino)piperidine-1-carbonyl)-4-methylpent-2-enenitrile]",8.52,8.32
"CC(C)(C)/C=C(\C#N)C(=O)N1CCC[C@@H](Nc2nc(Nc3cnn(C4CC4)c3)nc3[nH]nc(Cl)c23)C1 [Example 163, (R,E)-2-(3-((3-chloro-6-((1-cyclopropyl-1H-pyrazol-4-yl)amino)-1H-pyrazolo[3,4-d]pyrimidin-4-yl)amino)piperidine-1-carbonyl)-4,4-dimethylpent-2-enenitrile]",8.57,8.92
"N#C/C(=C\C1CC1)C(=O)N1CCC[C@@H](Nc2nc(Nc3cnn(C4CC4)c3)nc3[nH]nc(Cl)c23)C1 [Example 164, (R,E)-2-(3-((3-chloro-6-((1-cyclopropyl-1H-pyrazol-4-yl)amino)-1H-pyrazolo[3,4-d]pyrimidin-4-yl)amino)piperidine-1-carbonyl)-3-cyclopropylacrylonitrile]",8.06,8.66
"N#C/C(=C\C1CCCC1)C(=O)N1CCC[C@@H](Nc2nc(Nc3cnn(C4CC4)c3)nc3[nH]nc(Cl)c23)C1 [Example 165, (R,E)-2-(3-((3-chloro-6-((1-cyclopropyl-1H-pyrazol-4-yl)amino)-1H-pyrazolo[3,4-d]pyrimidin-4-yl)amino)piperidine-1-carbonyl)-3-cyclopentylacrylonitrile]",8.66,8.72
CCn1cc(Nc2nc(N[C@@H]3CCCN(C(=O)/C(C#N)=C/C4CC4)C3)c3c(Cl)n[nH]c3n2)cn1 [Example 166],8.25,8.92
"CCn1cc(Nc2nc(N(C)[C@@H]3CCCN(C(=O)/C(C#N)=C/C4CC4)C3)c3c(Cl)n[nH]c3n2)cn1 [Example 167, (R,E)-2-(3-((3-chloro-6-((1-ethyl-1H-pyrazol-4-yl)amino)-1H-pyrazolo[3,4-d]pyrimidin-4-yl)(methyl)amino)piperidine-1-carbonyl)-3-cyclopropylacrylonitrile]",7.37,8.82
CCn1cc(Nc2nc(N(C)[C@@H]3CCCN(C(=O)/C(C#N)=C/C(C)C)C3)c3c(Cl)n[nH]c3n2)cn1 [Example 168],7.74,8.37
"CCn1cc(Nc2nc(N[C@H]3CN(C(=O)/C(C#N)=C/C4CC4)CC[C@H]3C)c3c(Cl)n[nH]c3n2)cn1 [Example 169, (E)-2-((3R,4R)-3-((3-chloro-6-((1-ethyl-1H-pyrazol-4-yl)amino)-1H-pyrazolo[3,4-d]pyrimidin-4-yl)amino)-4-methylpiperidine-1-carbonyl)-3-cyclopropylacrylonitrile]",6.62,8.66
"CCn1cc(Nc2nc(N[C@H]3CN(C(=O)/C(C#N)=C/C(C)C)CC[C@H]3C)c3c(Cl)n[nH]c3n2)cn1 [Example 170, (E)-2-((3R,4R)-3-((3-chloro-6-((1-ethyl-1H-pyrazol-4-yl)amino)-1H-pyrazolo[3,4-d]pyrimidin-4-yl)amino)-4-methylpiperidine-1-carbonyl)-4-methylpent-2-enenitrile]",7.94,8.54
"CCn1cc(Nc2nc(N[C@@H]3CCCN(C(=O)/C(C#N)=C/C4CC4)C3)c3cc[nH]c3n2)cn1 [Example 171, (R,E)-3-cyclopropyl-2-(3-((2-((1-ethyl-1H-pyrazol-4-yl)amino)-7H-pyrrolo[2,3-d]pyrimidin-4-yl)amino)piperidine-1-carbonyl)acrylonitrile]",9.05,8.66
"CCn1cc(Nc2nc(N[C@@H]3CCCN(C(=O)/C(C#N)=C/C(C)C)C3)c3cc[nH]c3n2)cn1 [Example 172, (R,E)-2-(3-((2-((1-ethyl-1H-pyrazol-4-yl)amino)-7H-pyrrolo[2,3-d]pyrimidin-4-yl)amino)piperidine-1-carbonyl)-4-methylpent-2-enenitrile]",9.05,8.80
"CCn1cc(Nc2nc(S[C@@H]3CCCN(C(=O)/C(C#N)=C/C4CC4)C3)c3cc[nH]c3n2)cn1 [Example 173, (R,E)-3-cyclopropyl-2-(3-((2-((1-ethyl-1H-pyrazol-4-yl)amino)-7H-pyrrolo[2,3-d]pyrimidin-4-yl)thio)piperidine-1-carbonyl)acrylonitrile]",9.00,8.22
"CCn1cc(Nc2nc(S[C@@H]3CCCN(C(=O)/C(C#N)=C/C(C)C)C3)c3cc[nH]c3n2)cn1 [Example 174, (R,E)-2-(3-((2-((1-ethyl-1H-pyrazol-4-yl)amino)-7H-pyrrolo[2,3-d]pyrimidin-4-yl)thio)piperidine-1-carbonyl)-4-methylpent-2-enenitrile]",9.15,8.70
